In the supplement of paper PMC10307832:

What was measured:
Test in all cases: relative viability (nuclei count vs DMSO), 5 days (fraction); higher = more cells survive
[1] = compound: C[C@@H](N)c1ccc(C(=O)Nc2ccnc3[nH]ccc23)cc1 + Cc1cc(Nc2cc(N3CCN(C)CC3)nc(Sc3ccc(NC(=O)C4CC4)cc3)n2)n[nH]1 [Tozasertib] (partner 0.1 µM)
Summary of the method: (§1)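 A single step with final 0.05% Triton X-100, 1% formaldehyde and 1 ug/ml Hoechst fixed the cells and stained nuclei 5 days after treatment. Lung cancer cell lines in 1536-well plates had been treated by pin tool the day after seeding with one drug alone or a fixed anchor-drug dose plus five library-drug doses (not always all listed) in √10 steps, and nuclei were counted on 4× images. Relative viability is the ratio of nuclei in treated wells to nuclei in vehicle wells, taken as the median of duplicate plates.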

Tanzisertib + Crizotinib = compound: O[C@H]1CC[C@H](Nc2ncc3nc(Nc4c(F)cc(F)cc4F)n([C@H]4CCOC4)c3n2)CC1 [Tanzisertib] + C[C@@H](Oc1cc(-c2cnn(C3CCNCC3)c2)cnc1N)c1c(Cl)ccc(F)c1Cl [Crizotinib] (partner 1 µM)
Summary of the method: as §1

[2] = compound: C1CNCCC1C2=CC(=NN2)C3=CC=NC=C3 + COc1cccc2cc(-c3nc([C@H]4CC[C@H](C(=O)O)CC4)n4ncnc(N)c34)[nH]c12 [OSI-027] (partner 0.5 µM)
Summary of the method: as §1

Tanzisertib + Vorinostat = compound: O[C@H]1CC[C@H](Nc2ncc3nc(Nc4c(F)cc(F)cc4F)n([C@H]4CCOC4)c3n2)CC1 [Tanzisertib] + O=C(CCCCCCC(=O)Nc1ccccc1)NO [Vorinostat] (partner 1 µM)
Summary of the method: as §1

Row | Cell Line | relative viability ([1]; first compound 0.04 µM) | relative viability ([1]; first compound 0.1265 µM) | relative viability ([1]; first compound 0.4 µM) | relative viability ([1]; first compound 1.265 µM) | relative viability ([1]; first compound 4 µM) | relative viability (Tanzisertib + Crizotinib; first compound 0.08 µM) | relative viability (Tanzisertib + Crizotinib; first compound 0.253 µM) | relative viability (Tanzisertib + Crizotinib; first compound 0.8 µM) | relative viability (Tanzisertib + Crizotinib; first compound 2.53 µM) | relative viability (Tanzisertib + Crizotinib; first compound 8 µM) | relative viability ([2]; first compound 0.08 µM) | relative viability ([2]; first compound 0.8 µM) | relative viability ([2]; first compound 2.53 µM) | relative viability ([2]; first compound 8 µM) | relative viability (Tanzisertib + Vorinostat; first compound 0.08 µM) | relative viability (Tanzisertib + Vorinostat; first compound 0.253 µM) | relative viability (Tanzisertib + Vorinostat; first compound 0.8 µM) | relative viability (Tanzisertib + Vorinostat; first compound 2.53 µM) | relative viability (Tanzisertib + Vorinostat; first compound 8 µM)
1 | NCI-H2170 | 0.719 | 0.663 | 0.784 | 0.699 | 0.636 | 1.42 | 1.18 | 1.16 | 1.09 | 1.02 | 0.611 | 0.697 | 0.776 | 0.686 | 0.806 | 0.864 | 0.874 | 0.82 | 0.705
2 | NCI-H3122 | 0.397 | 0.357 | 0.497 | – | 0.468 | 0.302 | 0.306 | 0.288 | 0.292 | 0.293 | 0.856 | 1.02 | 1.05 | 0.981 | 1.37 | 1.09 | 0.932 | 1.09 | 1.12
3 | PC-14 | 0.518 | 0.577 | 0.543 | 0.385 | 0.429 | 0.979 | 0.878 | 0.994 | 0.883 | 0.574 | 0.722 | 1.12 | 0.986 | 0.822 | 0.75 | 0.735 | 0.701 | 0.627 | 0.357
4 | EPLC-272H | 0.304 | 0.322 | 0.531 | 0.287 | 0.188 | 0.958 | 0.862 | 0.864 | 0.874 | 0.872 | 0.279 | 0.348 | 0.318 | 0.292 | 0.515 | 0.35 | 0.487 | 0.483 | 0.358
5 | A-427 | 0.26 | 0.185 | 0.237 | – | 0.22 | 0.995 | 0.85 | 0.931 | 0.902 | 0.846 | 0.463 | 0.477 | 0.473 | 0.499 | 0.897 | 0.833 | 0.874 | 0.884 | 0.77
